Measurements as given in ChEMBL document CHEMBL1201862, “PubChem BioAssay data set” (2004).
Activity calls are given as the source filed them. Rule as the data show it, for most assays here: actives have a measured EC50 and inactives only a lower limit.

Legend:
[1] = test system: Streptococcus; test: Group A Streptococcus viability loss, dose response, counter-screen for streptokinase expression inhibitor project, luminescence, BacTiterGlo (AID 1915); type: functional, organism-based;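 also: potency for reduction of bacterial viability or growth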
[2] = test system: Streptococcus sp. 'group A'; test: growth inhibition of control SK(-) GAS strain, dose response, counter-screen for streptokinase expression inhibitor project, luminescence, kanamycin, BacTiterGlo, confirmation (AID 1900); type: functional, organism-based
[3] = target: T1, Streptokinase A (Streptococcus pyogenes serotype M1, UniProt P10520); test: S. pyogenes streptokinase expression inhibitors, potency, dose response, plasminogen activation absorbance, OD405 (AID 1914); type: functional, Streptococcus pyogenes M1 GAS;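 also: secreted streptokinase activity via plasminogen activation per viability signal from cell pellet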
T1 sequence (P10520 whole entry): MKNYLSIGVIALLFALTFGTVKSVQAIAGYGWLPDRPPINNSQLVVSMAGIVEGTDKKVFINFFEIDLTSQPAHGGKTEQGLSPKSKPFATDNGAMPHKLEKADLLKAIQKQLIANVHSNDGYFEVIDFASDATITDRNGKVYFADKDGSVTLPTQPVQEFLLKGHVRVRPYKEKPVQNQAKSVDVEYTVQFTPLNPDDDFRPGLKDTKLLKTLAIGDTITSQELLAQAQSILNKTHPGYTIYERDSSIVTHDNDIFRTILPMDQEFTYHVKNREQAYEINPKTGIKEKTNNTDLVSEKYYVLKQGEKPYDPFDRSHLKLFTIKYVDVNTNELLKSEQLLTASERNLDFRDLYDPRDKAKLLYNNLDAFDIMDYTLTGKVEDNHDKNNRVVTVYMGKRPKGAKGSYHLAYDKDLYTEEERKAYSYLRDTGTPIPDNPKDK

[4] = Luminescence Cell-Based Dose Response HTS to Identify Activators of Luciferase Translation or Activity in H4 […] Cells. [Related pubchem assays: 1829 (Project Summary), 1814 (Primary HTS)]; type: functional
[5] = test system: H4; test: Luminescence Cell-Based Dose Response HTS to Identify Activators of 5'UTR Stem-Loop Driven Prion Protein mRNA Translation in H4 Neuroglioblastoma Cells. [Related pubchem assays: 1829 (Project Summary), 1814 (Primary HTS)]; type: functional; details: Homo sapiens
[6] = Luminescence Cell-Based Dose Confirmation HTS to Identify Activators of 5'UTR Stem-Loop Driven Alpha-Synuclein mRNA Translation in H4 Neuroglioblastoma Cells. [Related pubchem assays: 1829 (Project Summary), 1814 (Primary HTS)]; type: functional
[7] = Luminescence Cell-Based Dose Retest to Confirm Inhibitors of Cancer Stem Cells. [Related pubchem assays (depositor defined):AID2717, AID2721]; type: functional; details: Homo sapiens
[8] = C. albicans growth with fluconazole, confirmation, fluorescence, retest (AID 2467); type: functional, cell-based
[9] = NIH-3T3 fibroblast cytotoxicity, dose response, cytotoxicity control, cell-based, fluorescence, Alamar Blue, secondary assay (AID 2327); type: functional;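 also: NIH-3T3 mouse fibroblasts cultured with fluconazole at 8 µg/mL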
[10] = target: FAD-linked sulfhydryl oxidase ALR (Homo sapiens, UniProt P55789); test: inhibitors of human ALR sulfhydryl oxidase, dose response, biochemical, H2O2 detection, luminescence, cherry-pick (AID 493248)
Sequence of FAD-linked sulfhydryl oxidase ALR (P55789 whole entry): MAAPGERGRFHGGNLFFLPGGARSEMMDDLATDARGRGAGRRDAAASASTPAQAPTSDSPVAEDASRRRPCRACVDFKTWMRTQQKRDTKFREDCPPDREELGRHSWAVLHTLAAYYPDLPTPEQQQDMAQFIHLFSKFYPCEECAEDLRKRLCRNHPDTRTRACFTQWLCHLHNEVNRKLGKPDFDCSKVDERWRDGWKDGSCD

[11] = target: T2, Heat shock factor protein 1 (Mus musculus, UniProt P38532); test: inhibition of MG132-induced HSE-luciferase signal, confirmation, cell-based, NIH3T3, luminescence, dose retest (AID 2382); type: functional;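 also: NIH3T3 fibroblasts with HSF1-driven luciferase reporter stressed by proteasome inhibitor MG132; luminescence from HSF1-driven luciferase expression after 8 hours of MG132 stress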
T2 sequence (P38532 whole entry): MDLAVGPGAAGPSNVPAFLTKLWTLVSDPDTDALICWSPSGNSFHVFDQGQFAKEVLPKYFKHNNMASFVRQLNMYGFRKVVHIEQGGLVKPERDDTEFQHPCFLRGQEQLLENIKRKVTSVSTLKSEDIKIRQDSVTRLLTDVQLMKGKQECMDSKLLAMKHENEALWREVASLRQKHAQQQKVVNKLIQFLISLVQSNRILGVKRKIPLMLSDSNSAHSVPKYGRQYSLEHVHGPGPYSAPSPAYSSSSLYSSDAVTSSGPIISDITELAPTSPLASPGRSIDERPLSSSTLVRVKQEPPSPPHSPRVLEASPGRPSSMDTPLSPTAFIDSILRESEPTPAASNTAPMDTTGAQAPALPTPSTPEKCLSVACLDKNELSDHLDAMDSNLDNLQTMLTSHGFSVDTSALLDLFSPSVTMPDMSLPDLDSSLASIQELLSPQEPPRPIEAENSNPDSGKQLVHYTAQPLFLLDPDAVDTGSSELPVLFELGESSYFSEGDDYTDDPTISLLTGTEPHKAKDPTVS

[12] = cells; type: functional
[13] = inhibitors of intracellular T. cruzi replication, confirmation, NIH3T3 host cells, beta-gal luminescence (AID 2044); type: functional, cell-based;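 also: intracellular parasites grown in NIH/3T3 mouse fibroblasts as host cells; luminescent beta-galactosidase reporter signal from transgenic T. cruzi replicating inside host cells; inhibitors lower the luminescence signal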
[14] = cytotoxicity toward NIH3T3 fibroblasts, dose response, counter-screen, cell-based, ATP luminescence, mouse fibroblasts (AID 2010); type: functional;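 also: cells exposed to compound for about 90 hours before reading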

Cc1ccc(S(=O)(=O)N(C)CC(=O)N2CC(C)OC(C)C2)cc1 (centres undefined)
EC50 [1]: > 150 µM (not active) | EC50 [2]: > 150 µM (not active) | EC50 [3]: > 150 µM (not active)

Cc1ccc(-c2nn(-c3ccccc3)cc2/C=C2\SC(=S)N(CCCCCC(=O)O)C2=O)o1
EC50 [4]: 16 µM (active) | EC50 [5]: 13.9 µM (active) | EC50 [6]: 12.6 µM (active)

O=C(Nc1ccc(-c2csc(Nc3ccc(Cl)cc3)n2)cc1)c1cc([N+](=O)[O-])cc(C(F)(F)F)c1
AC50 [7]: 1.32 µM (active) | EC50 [1]: 7.28 µM (active) | EC50 [2]: 8.5 µM (active) | EC50 [3]: > 150 µM (not active)

N#Cc1ccc(-c2nc3cc(Cl)ccc3c(=O)n2O)cc1
EC50 [8]: 1.63 µM (active) | EC50 [9]: > 160 µM (inconclusive)

CCC1(C)Cc2ccccc2-c2c1c(=O)n(Cc1ccccc1)c1nnnn21 (centres undefined)
EC50 [1]: > 150 µM (not active) | EC50 [3]: 4.04 µM (active)

COc1ccc(C(=O)Nc2cccc(-c3ccc(N4CCOCC4)nn3)c2)cc1
EC50 [1]: > 150 µM (not active) | EC50 [2]: > 150 µM (not active) | EC50 [3]: > 150 µM (not active)

COc1ccc(/C=N/NC(=O)c2cc[nH]n2)cc1CSc1ccccn1
AC50 [10]: 0.68 µM (active)

COc1cccc(NC(=O)C(=O)N2CCOCC2)c1
EC50 [4]: 78.3 µM (active) | EC50 [5]: 24.3 µM (active) | EC50 [6]: 4.35 µM (active)

CCOC(=O)c1ccc(Nc2ncccc2[N+](=O)[O-])cc1
EC50 [4]: 1.82 µM (active) | EC50 [5]: 0.801 µM (active) | EC50 [6]: 0.12 µM (active)

COc1ccc(/C=C/C(=O)NC(=S)NNC(=O)c2cc(OC)c(OC)c(OC)c2)cc1OC
EC50 [1]: 17.8 µM (active) | EC50 [2]: 3.3 µM (active) | EC50 [3]: > 150 µM (not active)

CCOc1ccc(N(CC(=O)NC2CCCCC2)C(=O)CCC(=O)Nc2nc(C)cs2)cc1
EC50 [11]: > 195 µM (not active)

CCOC(=O)C1(Cc2cccc(OC)c2)CCCN(C(=O)CCN2CCCO2)C1 (centres undefined)
EC50 [4]: 9.65 µM (active) | EC50 [5]: 2 µM (active) | EC50 [6]: 11.1 µM (active)

c1ccc2c(c1)CCN(c1nc3ccccc3n3cnnc13)C2
EC50 [4]: 26.4 µM (active) | EC50 [5]: 29.1 µM (active) | EC50 [6]: 0.123 µM (active)

CCOc1ccc(C(=O)Nc2nnc(C3=COCCO3)o2)cc1
IC50 [12]: 3.65 µM (active)

COc1ccccc1-c1c[nH]nc1-c1ccc(OCc2ccc(F)cc2)cc1O
EC50 [1]: 24.5 µM (active) | EC50 [2]: 7.62 µM (active) | EC50 [3]: 76.6 µM (active)

Cc1ccc(Oc2cc(C)nc(-c3ccccc3O)n2)cc1
EC50 [4]: 15 µM (active) | EC50 [5]: 44 µM (inconclusive) | EC50 [6]: 12.9 µM (active)

CCc1ccc(/C=C2\Oc3cc(OC(=O)N4CCOCC4)ccc3C2=O)cc1
EC50 [11]: > 195 µM (not active)

Cc1ccc(N(CC(=O)NC2CCCCC2)C(=O)CNC(=O)c2ccco2)c(C)c1
EC50 [11]: > 195 µM (not active)

CCNc1nc(NCC)nc(N/N=C/c2ccc(N(C)C)cc2)n1
AC50 [10]: 2.33 µM (active)

Cc1occc1C(=O)Nc1nnc(C(F)(F)F)s1
EC50 [8]: 1.95 µM (active) | EC50 [9]: > 150 µM (inconclusive)

Cc1cc(C(=O)CSc2nnc(-c3cccnc3)n2-c2ccccc2)c(C)n1CC1CCCO1 (centres undefined)
EC50 [4]: 18.7 µM (active) | EC50 [5]: > 60 µM (not active) | EC50 [6]: 8.04 µM (active)

O=C(CCN1CCOCC1)c1ccc(Cl)cc1
EC50 [13]: 1.74 µM (active) | IC50 [12]: 22.5 µM (active) | EC50 [14]: > 60 µM (not active)

CCOc1ccccc1N1CCN(CC(O)COC2CCCc3ccccc32)CC1 (centres undefined)
EC50 [8]: 1.02 µM (active) | EC50 [9]: > 160 µM (inactive)

CCc1noc(C)c1C(=O)Nc1cc(Cl)ccc1N1CCCC1
AC50 [10]: 1.15 µM (active)

Nc1nn2cc(-c3ccc(Br)cc3)nc2c2ccccc12
EC50 [4]: 0.177 µM (active) | EC50 [8]: 1.24 µM (active) | EC50 [5]: 2.38 µM (active) | EC50 [9]: 109 µM (active)

O=C(NC(=S)Nc1ccc(Cl)cn1)C(c1ccccc1)c1ccccc1
EC50 [1]: 6.57 µM (active) | EC50 [2]: 3.85 µM (active) | EC50 [3]: > 150 µM (not active)

COc1cc(-c2csc(CCn3nc(C)cc3C)n2)cc(OC)c1OC
AC50 [10]: 0.059 µM (active)

O=C(CCCc1c[nH]c2ccccc12)N1CCCCCC1
EC50 [4]: 7.67 µM (active) | EC50 [5]: 34.2 µM (active) | EC50 [6]: 8.16 µM (active)

Cc1noc(/C=C/N(C)C)c1S(=O)(=O)N1CCN(c2ccc(F)cc2)CC1
EC50 [11]: > 195 µM (not active)

COc1ccc(OC(=O)c2cc3cc(Cl)ccc3oc2=O)cc1
IC50 [12]: 7.33 µM (active)

O=C(N/N=C/c1cccc(O)c1)N/N=C/c1cccc(O)c1
AC50 [10]: 0.797 µM (active)

CCOc1ccc2ccccc2c1CNc1nnnn1CC
EC50 [11]: > 195 µM (not active)

Cc1ccc(-n2c(-c3ccc(Cl)cc3)n[nH]c2=S)c(C)c1
AC50 [10]: 2.08 µM (active)

O=C(c1ccccc1)N1CCN(c2ncnc3c(-c4ccccc4)nsc23)CC1
EC50 [4]: > 120 µM (not active) | EC50 [5]: 17 µM (active) | EC50 [6]: 33.1 µM (active)

Cc1ccc(NC(NC(=O)c2ccccn2)C(Cl)(Cl)Cl)cc1 (centres undefined)
AC50 [10]: 0.731 µM (active)

CCN(CCNC(=O)c1cccc(N2CCCC2=O)c1)c1ccccc1
AC50 [10]: 0.508 µM (active)

CC(=O)NCCc1c(C)n(Cc2ccccc2)c2ccccc12
AC50 [10]: 3.02 µM (active)

NC(=O)c1ccsc1NC(=O)CCS(=O)(=O)c1ccccc1
EC50 [8]: > 38 µM (not active) | EC50 [9]: > 150 µM (inactive)

CCCCn1c(N)nc2ccccc21
EC50 [11]: > 195 µM (not active)

CC1CC(N(C(=O)c2ccco2)c2ccccc2)c2ccccc2N1 (centres undefined)
AC50 [10]: 0.465 µM (active)

COc1ccc(NC(=O)c2cc3cccc(OC)c3o/c2=N\c2ccc(C(=O)O)cc2)cc1OC
EC50 [1]: 20.2 µM (active) | EC50 [2]: 2.38 µM (active) | EC50 [3]: > 150 µM (not active)

CCCCNC(=O)C1CCN(Cc2ccc(OCc3ccccc3)cc2)CC1
EC50 [4]: 70.9 µM (active) | EC50 [5]: 63.1 µM (active) | EC50 [6]: 18.6 µM (active)

O=C(NC1CCCCC1)C(c1ccc2ncccc2c1)N(Cc1ccc(F)cc1)C(=O)c1ccc2c(c1)OCCO2 (centres undefined)
EC50 [8]: > 38 µM (not active) | EC50 [9]: > 150 µM (inconclusive)
